# Assay results published in paper PMC6941952, “A homogeneous bioluminescent immunoassay to probe cellular signaling pathway regulation” (Communications Biology, 2020).
# Values joined by “and” are separate entries in the source; they are usually repeats but may differ in a detail not shown here. Equal entries are not always repeated. Where a SMILES comes first, the peptide text is derived from it. The star is where a group is joined. Cbz = O=C(OCc1ccccc1)*
# Experiments:
# total IκBα = experiment: NanoBiT cell-based immunoassay, total IκBα in MCF-7 cells; parameters: species or system human; conditions: for Total IkB Average: background subtracted
# Method: Prior to NanoBiT Cell-Based Immunoassay, 50,000 cells were seeded in 160 µl of complete growth media per well of a 96-well plate and incubated overnight. […] If necessary, the cell culture media were replaced with serum-free media after the cells were stably adherent on the plate and incubated overnight. To treat cells with activators or inhibitors, medium was changed to 30 µl of medium containing inhibitors. If activation of a specific pathway is needed, the cells were stimulated with 10 µl of medium containing activators. To lyse the cells, 10 µl of lysis buffer containing 0.1% digitonin diluted in 1X immunoassay buffer with protease and phosphatase inhibitors was added and the plates were mixed vigorously for 20 min. Then, 50 µl of an antibody mix containing two primary antibodies against the target protein and NanoBiT detecting antibodies (0.3 µl each per well), diluted in 1X immunoassay buffer was added to the lysates. The plates were incubated at 23 °C for 90 min, followed by the addition of 25 µl of Nano-Glo® reagent consisting of Nano-Glo® Luciferase Assay Substrate mixed with 1X immunoassay buffer. Luminescence was measured using a plate-reading luminometer.
# Single dose or dose response inhibitor treatments were performed prior to activation of the pathways as follows. For IκBα, the cells were treated in 30 µl medium with IKK16 or MG132 for 60 min before the addition of 10 µl of DMEM containing appropriate concentration of TNFα. To measure phosphorylation of AKT or STAT3, the corresponding NanoBiT immunoassays were developed with MCF-7 or A431 cells, respectively, according the same scheme used to develop the IκBα assay using the primary antibodies for AKT and STAT3 described in the reagents section. […] Treatment with LY294002 was performed in 30 µl medium and cells were incubated for 60 min before the addition of 1 µM Insulin. To measure STAT3 phosphorylation, A431 cells were incubated overnight in DMEM medium without serum. […] After addition of the stimulators, the cells were incubated for additional times as follows. IκBα phosphorylation and degradation analyses required both time courses and single time points as described in figures. […] The NanoBiT immunoassay protocol was followed as described above.
# (§1) All 96-well assay plates were read using a GloMax® 96 Microplate Luminometer from Promega. The instrument was set to 0.5 s integration time. In order to obtain net change of signal, the reagent background values (signal from the well containing all reagent except primary antibodies) were subtracted from the sample values. To plot and analyze the data, Microsoft Excel and GraphPad Prism® Software were used. IC50 values were determined by using a nonlinear regression fit to a sigmoidal dose response (variable slope).
# phospho-IκBα (Ser32) = experiment: NanoBiT cell-based immunoassay, phosphorylated IκBα in MCF-7 cells; parameters: species or system human; conditions: for P-IkB Average: background subtracted
# Method: Prior to NanoBiT Cell-Based Immunoassay, 50,000 cells were seeded in 160 µl of complete growth media per well of a 96-well plate and incubated overnight. The cells were checked under microscope and it was determined that 50,000 cells per well in 96-well plate is under 90% confluency for all cells tested. If necessary, the cell culture media were replaced with serum-free media after the cells were stably adherent on the plate and incubated overnight. To treat cells with activators or inhibitors, medium was changed to 30 µl of medium containing inhibitors. If activation of a specific pathway is needed, the cells were stimulated with 10 µl of medium containing activators. To lyse the cells, 10 µl of lysis buffer containing 0.1% digitonin diluted in 1X immunoassay buffer with protease and phosphatase inhibitors was added and the plates were mixed vigorously for 20 min. Then, 50 µl of an antibody mix containing two primary antibodies against the target protein and NanoBiT detecting antibodies (0.3 µl each per well), diluted in 1X immunoassay buffer was added to the lysates. The plates were incubated at 23 °C for 90 min, followed by the addition of 25 µl of Nano-Glo® reagent consisting of Nano-Glo® Luciferase Assay Substrate mixed with 1X immunoassay buffer. Luminescence was measured using a plate-reading luminometer.
# In all, 50,000 MCF-7 cells were seeded in 160 µl complete growth medium per well of a 96-well plate and incubated overnight. Half of the cells were treated with 50 ng per ml TNFα and half with vehicle. Cells were lysed as described above and a mixture of NanoBiT secondary antibodies with primary antibodies at the matrix concentrations described in Fig. 2a were added. After 90 min incubation, the Nano-Glo® reagent was added to the reactions as described above and luminescence was measured using a plate-reading luminometer.
# Single dose or dose response inhibitor treatments were performed prior to activation of the pathways as follows. For IκBα, the cells were treated in 30 µl medium with IKK16 or MG132 for 60 min before the addition of 10 µl of DMEM containing appropriate concentration of TNFα. To measure phosphorylation of AKT or STAT3, the corresponding NanoBiT immunoassays were developed with MCF-7 or A431 cells, respectively, according the same scheme used to develop the IκBα assay using the primary antibodies for AKT and STAT3 described in the reagents section. For the AKT assay, MCF-7 cells were incubated overnight in phenol-red free DMEM medium (Gibco #21063-029) without serum. Treatment with LY294002 was performed in 30 µl medium and cells were incubated for 60 min before the addition of 1 µM Insulin. To measure STAT3 phosphorylation, A431 cells were incubated overnight in DMEM medium without serum. […] After addition of the stimulators, the cells were incubated for additional times as follows. IκBα phosphorylation and degradation analyses required both time courses and single time points as described in figures. […] The NanoBiT immunoassay protocol was followed as described above.
# as §1
structure (smiles),measurement,setting,value
CC(C)C[C@@H](C=O)NC(=O)[C@H](CC(C)C)NC(=O)[C@H](CC(C)C)NC(=O)OCc1ccccc1 [MG132] (Cbz-Leu-Leu-Leu-aldehyde),TNFα-induced degradation of IκBα,"total IκBα; MCF-7 cells, 20 µM 1 h pretreatment, TNFα 50 ng per ml",inhibited
same,Total IkB Raw data,"total IκBα; MG132, TNF 0 min",86990 and 84090 and 85790 and 87340
same,Total IkB Subtract reagent background,"total IκBα; MG132, TNF 0 min",70533 and 70183 and 67283 and 68983
same,Total IkB Average,"total IκBα; MG132, TNF 0 min",69245
same,Total IkB Raw data,"total IκBα; MG132, TNF 2 min",89610 and 87100 and 86710 and 88460
same,Total IkB Subtract reagent background,"total IκBα; MG132, TNF 2 min",71653 and 72803 and 70293 and 69903
same,Total IkB Average,"total IκBα; MG132, TNF 2 min",71163
same,Total IkB Raw data,"total IκBα; MG132, TNF 4 min",87350 and 84610 and 87580 and 85650
same,Total IkB Subtract reagent background,"total IκBα; MG132, TNF 4 min",68843 and 70543 and 67803 and 70773
same,Total IkB Average,"total IκBα; MG132, TNF 4 min",69490
same,Total IkB Raw data,"total IκBα; MG132, TNF 6 min",86900 and 82270 and 84580 and 89030
same,Total IkB Subtract reagent background,"total IκBα; MG132, TNF 6 min",72223 and 70093 and 65463 and 67773
same,Total IkB Average,"total IκBα; MG132, TNF 6 min",68888
same,Total IkB Raw data,"total IκBα; MG132, TNF 8 min",86550 and 79990 and 82380 and 88200
same,Total IkB Subtract reagent background,"total IκBα; MG132, TNF 8 min",71393 and 69743 and 63183 and 65573
same,Total IkB Average,"total IκBα; MG132, TNF 8 min",67473
same,Total IkB Raw data,"total IκBα; MG132, TNF 10 min",86190 and 79560 and 78070 and 90680
same,Total IkB Subtract reagent background,"total IκBα; MG132, TNF 10 min",73873 and 69383 and 62753 and 61263
same,Total IkB Average,"total IκBα; MG132, TNF 10 min",66818
same,Total IkB Raw data,"total IκBα; MG132, TNF 12 min",85440 and 78280 and 77940 and 85890
same,Total IkB Subtract reagent background,"total IκBα; MG132, TNF 12 min",69083 and 68633 and 61473 and 61133
same,Total IkB Average,"total IκBα; MG132, TNF 12 min",65080
same,Total IkB Raw data,"total IκBα; MG132, TNF 15 min",85380 and 79290 and 77150 and 87460
same,Total IkB Subtract reagent background,"total IκBα; MG132, TNF 15 min",70653 and 68573 and 62483 and 60343
same,Total IkB Average,"total IκBα; MG132, TNF 15 min",65513
same,Total IkB Raw data,"total IκBα; MG132, TNF 30 min",74090 and 69470 and 69970 and 74150
same,Total IkB Subtract reagent background,"total IκBα; MG132, TNF 30 min",57343 and 57283 and 52663 and 53163
same,Total IkB Average,"total IκBα; MG132, TNF 30 min",55113
same,P-IkB Raw data,"phospho-IκBα (Ser32); MG132, TNF 0 min",22120 and 22340 and 21000 and 22420
same,P-IkB Subtract reagent background,"phospho-IκBα (Ser32); MG132, TNF 0 min",5850 and 5550 and 5770 and 4430
same,P-IkB Average,"phospho-IκBα (Ser32); MG132, TNF 0 min",5400
same,P-IkB Raw data,"phospho-IκBα (Ser32); MG132, TNF 2 min",23520 and 22950 and 21920 and 24690
same,P-IkB Subtract reagent background,"phospho-IκBα (Ser32); MG132, TNF 2 min",8120 and 6950 and 6380 and 5350
same,P-IkB Average,"phospho-IκBα (Ser32); MG132, TNF 2 min",6700
same,P-IkB Raw data,"phospho-IκBα (Ser32); MG132, TNF 4 min",23590 and 23010 and 22240 and 23600
same,P-IkB Subtract reagent background,"phospho-IκBα (Ser32); MG132, TNF 4 min",7030 and 7020 and 6440 and 5670
same,P-IkB Average,"phospho-IκBα (Ser32); MG132, TNF 4 min",6540
same,P-IkB Raw data,"phospho-IκBα (Ser32); MG132, TNF 6 min",26150 and 25190 and 24160 and 26140
same,P-IkB Raw data,"phospho-IκBα (Ser32); MG132, TNF 8 min",31970 and 30150 and 26560 and 32480
same,P-IkB Subtract reagent background,"phospho-IκBα (Ser32); MG132, TNF 8 min",15910 and 15400 and 13580 and 9990
same,P-IkB Average,"phospho-IκBα (Ser32); MG132, TNF 8 min",13720
same,P-IkB Raw data,"phospho-IκBα (Ser32); MG132, TNF 10 min",38930 and 36060 and 31570 and 39590
same,P-IkB Subtract reagent background,"phospho-IκBα (Ser32); MG132, TNF 10 min",23020 and 22360 and 19490 and 15000
same,P-IkB Average,"phospho-IκBα (Ser32); MG132, TNF 10 min",19968
same,P-IkB Raw data,"phospho-IκBα (Ser32); MG132, TNF 12 min",47120 and 43420 and 37410 and 48430
same,P-IkB Subtract reagent background,"phospho-IκBα (Ser32); MG132, TNF 12 min",31860 and 30550 and 26850 and 20840
same,P-IkB Average,"phospho-IκBα (Ser32); MG132, TNF 12 min",27525
same,P-IkB Raw data,"phospho-IκBα (Ser32); MG132, TNF 15 min",56120 and 51230 and 43530 and 56550
same,P-IkB Subtract reagent background,"phospho-IκBα (Ser32); MG132, TNF 15 min",39980 and 39550 and 34660 and 26960
same,P-IkB Average,"phospho-IκBα (Ser32); MG132, TNF 15 min",35288
same,P-IkB Raw data,"phospho-IκBα (Ser32); MG132, TNF 30 min",63690 and 60630 and 51570 and 63760
same,P-IkB Subtract reagent background,"phospho-IκBα (Ser32); MG132, TNF 30 min",47190 and 47120 and 44060 and 35000
same,P-IkB Average,"phospho-IκBα (Ser32); MG132, TNF 30 min",43343
